{"source": "patent US10844420B2", "about": "“Method for detecting slow-VISA” (priority 2016, dated 2020)", "format_in_all_cases": "cell-based, Staphylococcus aureus", "key": {"slow-VISA [1]": {"system": "slow-VISA", "assay": "ETEST of VCM on BHI medium added with mupirocin, slow-VISA", "conditions": "BHI medium added with mupirocin at a concentration at which growth was not suppressed", "experimental": "The pictures on the left show the results of a mupirocin-free medium after 96 hours, the pictures on the right show the results of a mupirocin-containing medium after 96 hours, and black arrows show the points after 48 hours.\n(§1) (2) The bacteria grown in step (a) is adjusted to OD=0.3 using an absorbance measuring instrument (wavelength of 578 nm), and it was set as 1×10^8 cells. Then, the bacteria are spread on a BHI agar medium of Eiken Chemical Co., Ltd. and a mupirocin-containing BHI agar medium, and the ETEST® strips (bioMerieux Japan Ltd.) of VCM and cefoxitin are placed thereon, followed by culture for 48 hours in accordance with the CLSI guideline. After 48 hours, tested bacteria having a MIC of cefoxitin of ≥8 μg/mL and a MIC of VCM of >6 μg/mL are suspected to be slow-VISA.\n(§2) Further, it was supposed that the resistance further increased when the stringent response relating to those mutated genes was induced."}, "slow-VISA [2]": {"system": "slow-VISA", "assay": "Disk diffusion method of VCM on BHI agar medium with or without mupirocin", "conditions": "30 μg/mL vancomycin disks, BHI agar containing 0.032 μg/mL of mupirocin, culture for 48 hours", "experimental": "The disk diffusion method using […] vancomycin disks was separately performed on BHI agar media containing 0.032 μg/mL of mupirocin or BHI agar media in the absence of a drug. […] The values shown above the panels indicate the averages and standard deviations of the diameters of inhibitory zones."}, "slow-VISA [3]": {"system": "slow-VISA", "assay": "Growth of slow-VISA in liquid medium containing VCM with or without mupirocin", "text": "In the figure, MUP indicates mupirocin.\n(§3) From FIG. 1(b), when VISA was used, an increase in the growth rate by the addition of mupirocin was not observed."}, "VISA": {"system": "VISA", "assay": "Growth of VISA in liquid medium containing VCM with or without mupirocin", "conditions": "FIG. 1(b)", "text": "as §3"}, "[4]": {"system": "vancomycin-sensitive strain", "assay": "ETEST of VCM on BHI medium added with mupirocin, vancomycin-sensitive strain", "conditions": "BHI medium added with mupirocin at a concentration at which growth was not suppressed", "experimental": "as §1, §2"}}, "data": [{"smiles": "C/C(=C\\C(=O)OCCCCCCCCC(=O)O)C[C@@H]1OC[C@H](C[C@@H]2O[C@H]2[C@@H](C)[C@H](C)O)[C@@H](O)[C@H]1O", "note": "[mupirocin]", "values": [{"measurement": "degree of resistance (ETEST of VCM)", "setting": "slow-VISA [1]", "value": "increased"}, {"measurement": "colonies around inhibitory zone", "setting": "slow-VISA [2]", "value": "Small numerous colonies were detected"}, {"measurement": "difference in OD values", "setting": "slow-VISA [3]; 0.032 μg/mL mupirocin and 16 μg/mL VCM versus comparison media, in 24 hours", "value": "≥ 1"}, {"measurement": "growth rate versus culture in mupirocin-free liquid medium or medium with growth-affecting mupirocin concentration and 8 μg/mL of VCM", "setting": "slow-VISA [3]; liquid medium, 0.032 μg/mL mupirocin and 16 μg/mL of VCM", "value": "larger"}, {"measurement": "increase in the growth rate by the addition of mupirocin", "setting": "VISA", "value": "not observed"}, {"measurement": "degree of resistance (ETEST of VCM)", "setting": "[4]", "value": "did not increase"}]}]}
